Laboratory results published in patent US20050256037A1, “Antibacterial amide macrocyles” (Bayer HealthCare AG, priority 2003, published 2005).
Values after ≈ are worked out from the molar mass of the structure shown. Structures can show the parent of a compound that is named as a salt. Where two headings read alike, the source gives them in different places. Marks after values point to notes of the source that are not given here.

Tests used:
S. aureus T17 = experiment: MIC, alternative method: agar dilution test with 20% defibrinated horse blood; format: cell-based; conditions: Staphylococcus aureus
Procedure: (§1) Alternative Method for Determining the Minimum Inhibitory Concentration (MIC)
(§2) The minimum inhibitory concentration (MIC) is the minimum concentration of an antibiotic with which the growth of a test microbe is inhibited over 18-24 h. The inhibitor concentration can be determined by standard microbiological methods using modified medium in an agar dilution test (see, for example, the National Committee for Clinical Laboratory Standards. Methods for dilution antimicrobial susceptibility tests for bacteria that grow aerobically; approved standard-fifth edition. NCCLS document M7-A5 [ISBN 1-56238-394-9]. NCCLS, 940 West Valley Road, Suite 1400, Wayne, Pa. 19087-1898 USA, 2000). The bacterial microbes are cultivated on 1.5% agar plates containing 20% defibrinated horse blood. The test microbes, which are incubated on Columbia blood agar plates (Becton-Dickinson) overnight, are diluted in PBS, adjusted to a microbe count of about 5×10^5 microbes/ml and placed as drops (1-3 μl) on test plates. The test substances contain various dilutions of the test substances (1:2 dilution stages). The cultures are incubated at 37° C. in the presence of 5% CO2 for 18-24 hours.
(§3) The lowest concentration of each substance at which no visible bacterial growth occurs is defined as the MIC and is reported in μg/ml.

E. faecium L4001 = experiment: as above; format: cell-based; conditions: Enterococcus faecium
Procedure: as §1, §2, §3

S. aureus E33 = experiment: as above; format: cell-based; conditions: Staphylococcus aureus
Procedure: as §1, §2, §3

[1] = molecular target: S. aureus 133 Translation; experiment: S. aureus in vitro transcription-translation assay (S30 extract, firefly luciferase reporter); format: biochemical
Source text: In vitro Transcription-Translation with S. aureus Extracts
Construction of an S. aureus Luciferase Reporter Plasmid
A reporter plasmid which can be used in an in vitro transcription-translation assay from S. aureus is constructed by using the plasmid pBESTluc (Promega Corporation, USA). The E. coli tac promoter present in this plasmid in front of the firefly luciferase is replaced by the capA1 promoter with appropriate Shine-Dalgarno sequence from S. aureus. The primers CAPFor 5′-CGGCCAAGCTTACTCGGAT-[…] […]-3′ and CAPRev 5′-[…]-3′ are used for this. The primer CAPFor contains the capA1 promoter, the ribosome binding site and the 5′ region of the luciferase gene. After PCR using pBESTluc as template it is possible to isolate a PCR product which contains the firefly luciferase gene with the fused capA1 promoter. This is, after restriction with ClaI and HindIII, ligated into the vector pBESTluc which has likewise been digested with ClaI and HindIII. The resulting plasmid pla is able to replicate in E. coli and be used as template in the S. aureus in vitro transcription-traslation assay.
Preparation of S30 Extracts from S. aureus
Six litres of BHI medium are inoculated with a 250 ml overnight culture of an S. aureus strain and allowed to grow at 37° C. until the OD600 run is 2-4. The cells are harvested by centrifugation and washed in 500 ml of cold buffer A (10 mM Tris acetate, pH 8.0, 14 mM Magnesium acetate, 1 mM DTT, 1 M KCl). After renewed centrifugation, the cells are washed in 250 ml of cold buffer A with 50 mM KCl, and the resulting pellets are frozen at −20° C. for 60 min. The pellets are thawed on ice in 30 to 60 min and taken up to a total volume of 99 ml in buffer B (10 mM Tris acetate, pH 8.0, 20 mM Magnesium acetate, 1 mM DTT, 50.mM KCl). 1.5 ml portions of lysostaphin (0.8 mg/ml) in buffer B are introduced into 3 precooled centrifuge cups and each mixed with 33 ml of the cell suspension. The samples are incubated at 37° C., shaking occasionally, for 45 to 60 min, before 150 μl of a 0.5 M DTT solution are added. The lysed cells are centrifuged at 30 000×g and 4° C. for 30 min. The cell pellet is taken up in buffer B and then centrifuged again under the same conditions, and the collected supernatants are combined. The supernatants are centrifuged again under the same conditions, and 0.25 volume of buffer C (670 mM Tris acetate, pH 8.0, 20 mM Magnesium acetate, 7 mM Na3 phosphoenolpyruvate, 7 mM DTT, 5.5 mM ATP, 70 μM amino acids (complete from Promega), 75 μg of pyruvate kinase (Sigma, Germany)/ml are added to the upper ⅔ of the supernatant. The samples are incubated at 37° C. for 30 min. The supernatants are dialysed against 2 l of dialysis buffer (10 mM Tris acetate, pH 8.0, 14 mM Magnesium acetate, 1 mM DTT, 60 mM Potassium acetate) in a dialysis tube with a 3500 Da cut-off with one buffer change at 4° C. overnight. The dialysate is concentrated to a protein concentration of about 10 mg/ml by covering the dialysis tube with cold PEG 8000 powder (Sigma, Germany) at 4° C. The S30 extracts can be stored in aliquots at −70° C.
Determination of the IC50 in the S. aureus in vitro Transcription-Translation Assay Inhibition of protein biosynthesis of the compounds can be shown in an in vitro transcription-translation assay. The assay is based on the cell-free transcription and translation of firefly luciferase using the reporter plasmid pla as template and cell-free S30 extracts obtained from S. aureus. The activity of the resulting luciferase can be detected by luminescence measurement.
The amount of S30 extract or plasmid pla to be employed must be tested anew for each preparation in order to ensure an optimal concentration in the assay. 3 μl of the substance to be tested, dissolved in 5% DMSO, are introduced into an MTP. Then 10 μl of a suitably concentrated plasmid solution pla are added. […]

S. aureus 133 = experiment: Rate of spontaneous resistance; format: cell-based
Procedure: Determination of the Rates of Spontaneous Resistance to S. aureus
The spontaneous resistance rates for the compounds of the invention are determined as follows: the bacterial microbes are cultivated in 30 ml of a minimal medium (18.5 mM Na2HPO4, 5.7 mM KH2PO4, 9.3 mM NH4Cl, 2.8 mM MgSO4, 17.1 mM NaCl, 0.033 μg/ml thiamine hydrochloride, 1.2 μg/ml nicotinic acid, 0.003 μg/ml biotin, 1% glucose, 25 μg/ml of each proteinogenic amino acid with the addition of 0.4% BH broth) at 37° C. overnight, centrifuged at 6000×g for 10 min and resuspended in 2 ml of phosphate-buffered physiological NaCl solution (about 2×10^9 microbes/ml). […] The resulting colonies (cfu) are counted.

[2] = T17, read-out: MIC S. aureus T17
[3] = L4001, read-out: MIC E. faecium L4001
[4] = E33, read-out: MIC S. aureus E33

CN1C(=O)[C@H](C[C@@H](O)CN)NC(=O)[C@@H](N)Cc2cc(ccc2O)-c2ccc(O)c(c2)C[C@H]1C(=O)NCCN [Example 1, (8S,11S,14S)-14-amino-N-(2-aminoethyl)-11-[(2R)-3-amino-2-hydroxypropyl]-5,17-dihydroxy-9-methyl-10,13-dioxo-9,12-diazatricyclo[14.3.1.1.^2,6]henicosa-1(20),2(21),3,5,16,18-hexaene-8-carboxamide, trihydrochloride]
MIC (S. aureus T17; [2]): 4 mg/L
MIC (E. faecium L4001; [3]): 16 mg/L
MIC (S. aureus E33; [4]): 4 mg/L
IC50 ([1]; Table A): 0.1 µM
IC50 ([1]; Table B): 0.1 µM
Rate of spontaneous resistance S. aureus 133 (S. aureus 133; 10 × MIC): <4 × 10^−8

NCCC[C@@H]1NC(=O)[C@@H](N)Cc2cc(ccc2O)-c2ccc(O)c(c2)C[C@@H](C(=O)NCCN)NC1=O [Example 6, (8S,11S,14S)-14-amino-N-(2-aminoethyl)-11-(3-aminopropyl)-5,17-dihydroxy-10,1 3-dioxo-9,12-diazatricyclo[14.3.1.1^2,6]henicosa-1(20),2(21),3,5,16,18-hexaene-8-carboxamide]
MIC (S. aureus T17; [2]): 2 mg/L (≈ 4.01 µM)
MIC (E. faecium L4001; [3]): 8 mg/L (≈ 16 µM)
MIC (S. aureus E33; [4]): 0.5 mg/L (≈ 1 µM)
IC50 ([1]; Table A): 0.5 µM
IC50 ([1]; Table B): 0.5 µM
Rate of spontaneous resistance S. aureus 133 (S. aureus 133): <8 × 10^−9*
Rate of spontaneous resistance S. aureus 133 (S. aureus 133; 10 × MIC): <8 × 10^−9

NC[C@H](O)C[C@@H]1NC(=O)[C@@H](N)Cc2cc(ccc2O)-c2ccc(O)c(c2)C[C@@H](C(=O)O)NC1=O [Example 20A, 14(S)-Amino-1(S)-(3-amino-2(R)-hydroxypropyl)-5,17-dihydroxy-10,13-dioxo-9,12-diazatricyclo[14.3.1.1^2,6]henicosa-1(19),2,4,6(21),16(20),17-hexaene-8(S)-carboxylic acid dihydrochloride, reference compound]
MIC (S. aureus T17; T17, Table B, agar dilution, 20% defibrinated horse blood, read-out: MIC S. aureus T17): > 32 mg/L
MIC (E. faecium L4001; L4001, Table B, agar dilution, 20% defibrinated horse blood, read-out: MIC E. faecium L4001): 0.5 mg/L
MIC (S. aureus E33; E33, Table B, agar dilution, 20% defibrinated horse blood, read-out: MIC S. aureus E33): < 0.03 mg/L
IC50 ([1]; Table A): 1.5 µM
IC50 ([1]; Table B): 1.5 µM
Rate of spontaneous resistance S. aureus 133 (S. aureus 133; 10 × MIC): <1.7 × 10^−6
